Test results: patent publication US4937263A, “Antihypercholesterolemic compounds” (Merck & Co., Inc., priority 1989, dated 1990)

Test system: HMG-CoA reductase
Assay: HMG-CoA Reductase Inhibition Assay (in vitro, intrinsic inhibition)
Type: biochemical
Conditions: IC50 of test compound compared with compactin determined simultaneously, compactin assigned 100; tested as sodium salt of dihydroxy acid form; solubilized rat liver microsomal enzyme
Method: The intrinsic HMG-CoA reductase inhibition activity of the claimed compounds is measured in the in vitro protocol published in J. Med. Chem., 28, p. 347-358 (1985) and described below:
Male Holtzman Sprague-Dawley rats (225-250 g) were kept on reversed lighting and fed Purina rat chow containing 3% cholestyramine for 7 days preceding their sacrifice by CO2 asphyxiation. Livers were removed 6 hours into the dark cycle and used immediately to prepare microsomes. HMG-CoA reductase was solubilized from the freshly prepared microsome by the method of Heller and Shrewsbury [J. Biol. Chem., 1976, 251, 3815] and purified through the second ammonium sulfate precipitation step as described by Kleinsek et al. [Proc. Natl. Acad. Sci. U.S.A., 1977, 74, 1431]. The enzyme preparation was tested for HMG-CoA reductase potency and diluted with 100 mM phosphate buffer (pH 7.2) so that 100 μl of the enzyme solution, when added to the assay control, gave a value of 50,000-60,000 dpm. The enzyme preparation was stored at -80° C.
The assay is essentially the procedure of Shefer et al. [J. Lipid Res., 1972, 13, 402]. The complete assay medium contained the following in a total volume of 0.8 ml: phosphate buffer, pH 7.2, 100 mM; MgCl2, 3 mM; NADP, 3 mM; glucose 6-phosphate, 10 mM; glucose-6-phosphate dehydrogenase, 3 enzyme units; reduced glutathione, 50 mM; HMG-CoA (glutaryl-3-^14 C., New England Nuclear), 0.2 mM (0.1 μCi); and partially purified enzyme stock solution, 100 μL.
Test compounds or compactin (after first being converted to the sodium salt of their dihydroxy acid form in situ by addition of IN NaOH (1 equivalent) were added to the assay system in 10 μL volumes at multiconcentration levels. After a 40 minute incubation at 37° C. with shaking and, exposure to air, the reaction was stopped by the addition of 0.4 mL of 8 N HCl. After an additional 30-minute incubation period at 37° C. to ensure the complete lactonization of mevalonic acid to mevalonolactone, 0.2 ml of the mixture was added to an 0.5×5.0 cm column containing 100-200 mesh Bio-Rex 5,chloride form (Bio-Rad), wetted with distilled water, as described by Alberts et al [J. Proc. Natl. Acad. Sci. U.S.A., 1980, 77, 3967]. The unreacted [^14 C]HMG-CoA was absorbed on the resin and the [^14 C]mevalonolactone was eluted with distilled water (2×1 ml) directly into 7-ml scintillation vials. Five milliliters of Aquasol-2 (New England Nuclear) was added to each vial, and radioactivity was measured in a Packard Tri Carb Prias scintillation counter. IC50 values were determined by plotting percentage inhibition against test compound concentration and fitting a straight line to the resulting data by using the least squares method. For estimation of relative inhibitory potencies, compactin was assigned a value of 100 and the IC50 value of the test compound was compared with that of compactin determined simultaneously.

Compound | Relative Potency
C[C@H]1C=C2C=C[C@H](C)[C@H](CC[C@@H](O)C[C@@H](O)CC(=O)O)[C@H]2[C@@H](OC(=O)C(C)(C)CCc2ccccc2)C1 | 100
CCOc1ccc(C(C)(C)C(=O)O[C@H]2C[C@@H](C)C=C3C=C[C@H](C)[C@H](CC[C@@H](O)C[C@@H](O)CC(=O)O)[C@H]32)cc1 | 47
C[C@H]1C=C2C=C[C@H](C)[C@H](CC[C@@H](O)C[C@@H](O)CC(=O)O)[C@H]2[C@@H](OC(=O)C(C)(C)c2ccccc2)C1 | 88
COc1ccc(C(C)(C)C(=O)O[C@H]2C[C@@H](C)C=C3C=C[C@H](C)[C@H](CC[C@@H](O)C[C@@H](O)CC(=O)O)[C@H]32)cc1 | 144

The remaining lines, values ahead:

Relative Potency | Compound
280 | C[C@H]1C=C2C=C[C@H](C)[C@H](CC[C@@H](O)C[C@@H](O)CC(=O)O)[C@H]2[C@@H](OC(=O)C(C)(C)Cc2ccc(O)cc2)C1
36 | C[C@H]1C=C2C=C[C@H](C)[C@H](CC[C@@H](O)C[C@@H](O)CC(=O)O)[C@H]2[C@@H](OC(=O)C(C)(C)c2ccc(CO)cc2)C1
217 | C[C@H]1C=C2C=C[C@H](C)[C@H](CC[C@@H](O)C[C@@H](O)CC(=O)O)[C@H]2[C@@H](OC(=O)C(C)(C)c2ccc(O)c(F)c2)C1
333 | C[C@H]1C=C2C=C[C@H](C)[C@H](CC[C@@H](O)C[C@@H](O)CC(=O)O)[C@H]2[C@@H](OC(=O)C(C)(C)Cc2cc(O)cc(O)c2)C1
173 | C[C@H]1C=C2C=C[C@H](C)[C@H](CC[C@@H](O)C[C@@H](O)CC(=O)O)[C@H]2[C@@H](OC(=O)C(C)(C)Cc2ccccc2)C1
217 | C[C@H]1C=C2C=C[C@H](C)[C@H](CC[C@@H](O)C[C@@H](O)CC(=O)O)[C@H]2[C@@H](OC(=O)C(C)(C)c2ccc(O)cc2)C1
197 | C[C@H]1C=C2C=C[C@H](C)[C@H](CC[C@@H](O)C[C@@H](O)CC(=O)O)[C@H]2[C@@H](OC(=O)C(C)(C)c2cccc(O)c2)C1
